Here are results for one compound from BindingDB's records for doi:10.1016/s0960-894x(99)00089-x (Kyoto Pharmaceutical University, 1999).

The experiment can be described thus: Inhibitory activity against HIV-1 IIIB in CEM-SS infected cells (Experiment 1).

For `Cc1cn([C@H]2C[C@H](N=[N+]=[N-])[C@@H](CO)O2)c(=O)[nH]c1=O` [1-((2R,4S,5S)-4-Azido-5-hydroxymethyl-tetrahydro-furan-2-yl)-5-methyl-1H-pyrimidine-2,4-dione], the EC50 is 0.126 µM.
